Assay results reported in the supplement of paper PMC8967900.

Experiments:
Test in all cases: selective drug sensitivity score (sDSS, relative to normal bone marrow) (sDSS (score)); higher = more potent and effective on the cell line relative to normal bone marrow cells
Settings in all cases: 72 h
380 = test system: 380
697 = test system: 697
ALL-PO = test system: ALL-PO
CCRF-CEM = test system: CCRF-CEM
CCRF-HSB2 = test system: CCRF-HSB2
COG-LL-319h = test system: COG-LL-319h
COG-LL-394h = test system: COG-LL-394h
HPB-ALL = test system: HPB-ALL
JURKAT = test system: JURKAT
KARPAS-45 = test system: KARPAS-45
KASUMI-10 = test system: KASUMI-10
LC4-1 = test system: LC4-1
MHH-CALL-4 = test system: MHH-CALL-4
MOLT-14 = test system: MOLT-14
NALL-1 = test system: NALL-1
P30-OHKUBO = test system: P30-OHKUBO
PEER = test system: PEER
PF-382 = test system: PF-382
SEM cells = test system: SEM cells
SUP-B15 = test system: SUP-B15
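Note: ALL cell lines in 384-well plates, five doses spanning 10,000-fold, each plate scaled between vehicle and 100 µmol/L benzalkonium chloride controls, sDSS an adapted area-under-curve metric.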

Structure (SMILES) | selective drug sensitivity score 380 | selective drug sensitivity score 697 | selective drug sensitivity score (ALL-PO) | selective drug sensitivity score (CCRF-CEM) | selective drug sensitivity score (CCRF-HSB2) | selective drug sensitivity score (COG-LL-319h) | selective drug sensitivity score (COG-LL-394h) | selective drug sensitivity score (HPB-ALL) | selective drug sensitivity score (JURKAT) | selective drug sensitivity score (KARPAS-45) | selective drug sensitivity score (KASUMI-10) | selective drug sensitivity score (LC4-1) | selective drug sensitivity score (MHH-CALL-4) | selective drug sensitivity score (MOLT-14) | selective drug sensitivity score (NALL-1) | selective drug sensitivity score (P30-OHKUBO) | selective drug sensitivity score (PEER) | selective drug sensitivity score (PF-382) | selective drug sensitivity score (SEM cells) | selective drug sensitivity score (SUP-B15)
CNC(=O)c1nn(C)c2c1C(C)(C)Cc1cnc(Nc3ccc(N4CCN(C)CC4)cc3)nc1-2 [Milciclib] (top concentration 10000 nM) | -0.06 | 12.5 | 9.94 | 2.04 | 13.9 | 7.64 | 1.74 | 4.44 | 4.34 | 5.04 | 12.6 | 5.94 | -0.06 | 7.04 | -0.86 | 4.94 | 5.84 | 4.84 | 10 | 8.14
CN1CC[C@H](c2c(O)cc(O)c3c(=O)cc(-c4ccccc4Cl)oc23)[C@H](O)C1 [Alvocidib] (top concentration 10000 nM) | -4.3 | 1.3 | -6.7 | 0.6 | 2.2 | -2.7 | -2.5 | -3.1 | -2.6 | 2 | -2.9 | -3.3 | -3.8 | 1.3 | -7.1 | 1.1 | -2.1 | -3.3 | -3.5 | 0.1
COc1ccc(S(=O)(=O)Nc2cccnc2Nc2ccc(O)cc2)cc1 [ABT-751] (top concentration 10000 nM) | 8.72 | 12.8 | 13.3 | 12.2 | 13 | 10.7 | 3.72 | 13.2 | 15.6 | 12.2 | 8.12 | 11.7 | 3.52 | 11.9 | 10.8 | 11.6 | 15.5 | 9.42 | 14.7 | 10.8
CC(=O)Nc1cccc(-n2c(=O)n(C3CC3)c(=O)c3c(Nc4ccc(I)cc4F)n(C)c(=O)c(C)c32)c1 [Trametinib] (top concentration 250 nM) | 3.56 | -2.64 | -1.44 | -1.84 | -1.54 | -0.74 | -4.34 | -0.24 | -7.94 | -7.14 | -5.34 | 2.46 | 0.06 | 6.96 | -4.84 | -8.04 | -4.44 | -5.44 | -8.04 | 13.6
CC(C)c1cc(C(=O)N2Cc3ccc(CN4CCN(C)CC4)cc3C2)c(O)cc1O [Onalespib] (top concentration 2500 nM) | 6.52 | 2.82 | 1.62 | 4.62 | 7.32 | 7.92 | -2.38 | 4.62 | -1.18 | 5.42 | 3.92 | 3.22 | -0.48 | 6.02 | -4.68 | 1.32 | 0.52 | 5.62 | 3.92 | 3.92
CS(=O)(=O)c1ccc(C(=O)Nc2ccc(Cl)c(-c3ccccn3)c2)c(Cl)c1 [Vismodegib] (top concentration 10000 nM) | 0.76 | -0.84 | 3.56 | -1.14 | -1.14 | 5.56 | -1.14 | 0.76 | -1.14 | -1.14 | -1.14 | 5.26 | 0.16 | -1.14 | 1.06 | 0.36 | -0.94 | -1.14 | 2.06 | 11.3
O=C(Nc1ccncc1)C(=O)c1cn(Cc2ccc(Cl)cc2)c2ccccc12 [Indibulin] (top concentration 10000 nM) | 8.74 | 12 | 12.7 | 6.04 | 11.2 | 17 | 1.54 | 14.2 | 15.1 | 6.84 | 11.3 | 17.3 | 1.54 | 14.1 | 9.94 | 6.14 | 11.7 | 4.74 | 11.9 | 11.8
COc1cc(Nc2ncc(F)c(Nc3ccc4c(n3)N(COP(=O)(O)O)C(=O)C(C)(C)O4)n2)cc(OC)c1OC [Fostamatinib] (top concentration 2500 nM) | -2.84 | 3.16 | 8.06 | -2.34 | 4.46 | 15.3 | -1.54 | -1.94 | -2.14 | 4.56 | 8.66 | 2.56 | -2.74 | -0.34 | -2.64 | 2.96 | 0.66 | -1.14 | 9.96 | 0.96
Cn1ncc(Cl)c1-c1cc(C(=O)N[C@H](CN)Cc2cccc(F)c2)sc1Cl [Afuresertib] (top concentration 1000 nM) | 2.46 | 0.76 | 4.26 | 5.36 | 0.86 | 7.76 | -0.94 | 2.86 | 3.86 | 3.06 | -2.34 | 0.86 | 5.06 | 0.16 | -2.34 | 5.56 | -1.34 | 2.66 | 0.36 | 5.66
CCN1CCN(Cc2ccc(Nc3ncc(F)c(-c4cc(F)c5nc(C)n(C(C)C)c5c4)n3)nc2)CC1 [Abemaciclib] (top concentration 2500 nM) | -6.86 | 8.44 | -3.36 | -2.36 | -2.46 | 6.64 | -3.26 | -2.46 | -6.16 | -4.66 | -1.06 | 2.94 | -1.76 | 1.44 | -5.96 | 5.94 | -1.96 | -1.26 | -1.86 | 6.74
Cc1ncc(-c2ccnc(Nc3ccc(S(C)(=O)=O)cc3)n2)n1C(C)C [AZD-5438] (top concentration 10000 nM) | -7.56 | 0.94 | -6.06 | 3.54 | 1.34 | 8.54 | -5.86 | -5.06 | -1.06 | 2.64 | 6.04 | 0.44 | -6.86 | 3.64 | -6.86 | 0.84 | 3.04 | -2.46 | 2.34 | 9.74
C[C@]1(c2nc3c(C(N)=O)cccc3[nH]2)CCCN1 [Veliparib] (top concentration 10000 nM) | -2.78 | -1.08 | -1.78 | -4.18 | -2.18 | 1.02 | -4.18 | -0.28 | -3.28 | -4.18 | -1.08 | -4.18 | 6.72 | 0.22 | -4.18 | 4.42 | -4.18 | -4.08 | -4.18 | -1.08
O=C(Nc1cccc(Nc2ncc(Br)c(NCCc3cnc[nH]3)n2)c1)N1CCCC1 [BX-912] (top concentration 10000 nM) | 8.26 | 10.4 | 14 | 9.96 | 9.66 | 12.7 | -2.24 | -0.34 | -1.34 | 3.56 | 12.8 | 12.3 | 3.06 | 9.36 | 7.36 | 10.9 | 10.6 | 5.06 | 13.4 | 11.9
C=C1C[C@@H]2[C@H](CC[C@]3(C)C(=O)CC[C@@H]23)[C@@]2(C)C=CC(=O)C=C12 [Exemestane] (top concentration 10000 nM) | 7.7 | -0.9 | -1.9 | -0.9 | -1 | 10 | -0.4 | 5.5 | -1.4 | -1.2 | -1.9 | 3.6 | -1.9 | 1 | -1.9 | -0.4 | -1.5 | -0.4 | -1.9 | 1.1
Nc1ncnc2c1nc(Cl)n2[C@@H]1O[C@H](CO)[C@@H](O)[C@H]1O [8-chloro-adenosine] (top concentration 50000 nM) | -6.3 | 4.1 | 1.6 | 9.1 | 3.6 | 4.3 | 5.1 | -4.8 | 0.3 | 1.8 | 7.5 | 2.9 | 1.6 | 0.3 | -5.3 | 2.8 | 0.5 | -1.9 | 7.1 | 7.3
Cc1ccc(C(=O)Nc2cccc(C(F)(F)F)c2)cc1Nc1nc(-c2cccnc2)nc2c1cnn2C [NVP-BHG712] (top concentration 10000 nM) | 1.28 | 3.78 | 2.48 | 3.38 | 10.3 | 3.68 | -2.32 | 0.18 | 2.98 | 3.48 | 3.38 | 3.38 | 1.18 | 2.28 | 2.98 | 5.98 | 8.18 | 3.38 | 2.48 | 7.98
CN(C)CCOc1ccc(/C(=C(/CCCl)c2ccccc2)c2ccccc2)cc1 [Toremifene] (top concentration 10000 nM) | 1.58 | 0.28 | 3.18 | -0.02 | 1.48 | 3.48 | 0.58 | -1.72 | -0.42 | 0.38 | -5.42 | 1.08 | 0.48 | 2.48 | 8.98 | 0.58 | 1.28 | 1.08 | 0.48 | 2.58
NCC(=O)Nc1ccc(-n2nc(C(F)(F)F)cc2-c2ccc3c(ccc4ccccc43)c2)cc1 (top concentration 25000 nM) | 9.6 | 10.8 | 7.7 | 7.9 | 16.4 | 8 | -0.2 | 7.6 | 15.3 | 6.9 | 0 | 2.7 | 2.9 | 11.2 | 5 | 7.6 | 9.9 | 8 | 8 | 7.5
